In US20220153732A1, “PROTEIN SECRETION INHIBITORS” (KEZAR LIFE SCIENCES, priority 2019, published 2022) one finds IC50 and EC50 data, which are given here for 16 compounds.

Format in all cases: cell-based
For test [1], the system named is HER3-ss+4aa/Gaussia Luciferase. Kind of test: Dox-Induced Her3-ss-Gluc Assay. The gist of the method: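 Compounds, diluted in DMSO/media containing doxycycline, were incubated at 37° C., 5% CO2 with cells seeded one day earlier. The cells stably express HER3-ss+4aa/Gaussia luciferase under T-REx control. Where no stereochemistry is shown, data refer to the mixture of stereoisomers.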

The subject of test [2] is IL-2-FL/Gaussia Luciferase. The test is described as follows: Dox Induced IL2-FL-Gluc Assay. The gist of the method:
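Compounds were added together with doxycycline in DMSO/media and incubated at 37° C., 5% CO2. The cells were a stably selected line carrying IL-2-FL/Gaussia luciferase under T-REx inducible control. Structures drawn without stereochemistry were tested as stereoisomer mixtures.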

Test [3] concerns PD1-ss+10aa/Gaussia Luciferase. Kind of test: Dox-Induced PD1-ss-Gluc Assay. The gist of the method: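 Compounds, diluted in DMSO/media with doxycycline, were added to cells plated a day earlier and kept at 37° C under 5% CO2. The cells stably express a Gaussia luciferase construct fused to PD1-ss+10aa, induced via the T-REx system. Unassigned stereochemistry means mixture data.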

Test [4] deals with human multiple myeloma cell line U266B1. The test is described as follows: U266 Cell Viability Assay. Conditions: U-266, 48 hr, U266B1 cells, Celltiter-Glo, read-out: 48 hr U266 Viability Celltiter-Glo: Mean EC50. The gist of the method: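 Viability measured by CellTiter-Glo luciferase signal after 48 h compound exposure (37 °C, 5% CO2) of U266B1 cells in 384-well format. Where stereochemistry is not shown, data refer to the stereoisomer mixture.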

Test [5] relates to human multiple myeloma cell line NCI-H929. The test is described as follows: H929 Cell Viability Assay. The note with it: 48 hr, NCI-H929 cells, Celltiter-Glo, read-out: 48 hr H929 Viability Celltiter-Glo: Mean EC50. Here is the method:
Plates were incubated at 37° C., 5% CO2 for 48 hours. After 48 hours, Celltiter-Glo® (Promega) was added to each well and luciferase signal was quantified using Tecan Infinite M1000 Pro for cell viability determination.
For chemical structures that include one or more stereoisomers, but are illustrated without indicating stereochemistry, the assay data refers to a mixture of stereoisomers.

Test [6] relates to TNFα-FL/Gaussia Luciferase. The test is described as follows: Dox Induced TNFα-FL-Gluc Assay. The gist of the method:
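Compounds were added in doxycycline-containing DMSO/media to cells plated the previous day and incubated at 37° C under 5% CO2. These cells stably express a TNFα-FL/Gaussia luciferase cDNA whose expression is under T-REx (Dox-inducible) control, selected with Hygromycin and Blasticidin.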

[7] abbreviates: 24 hr doxycycline induction, 293FRT/TO cells, Gaussia luciferase signal; read-out: 24 hr Dox Inducible Her3(ss + 4)Gluc 293FRT/TO: Mean IC50.
The mark [8] stands for this setting: 24 hr doxycycline induction, 293FRT/TO cells, Gaussia luciferase signal; read-out: 24 hr Dox Inducible IL2FLGIuc 293FRT/TO: Mean IC50.
Where [9] appears, read: 24 hr doxycycline induction, 293FRT/TO cells, Gaussia luciferase signal; read-out: 24 hr Dox Inducible PD1ssGluc 293FRT/TO: Mean IC50.
[10] abbreviates: 24 hr doxycycline induction, 293FRT/TO cells, Gaussia luciferase signal; read-out: 24 hr Dox Inducible TNFaFLGluc 293FRT/TO: Mean IC50.

Each structure is given as a SMILES string. Like-named read-outs stand apart in the source and are kept apart here.

For the compound `O=C(Nc1nc(Cc2ccccc2)cs1)c1cccn1CCCc1ccncc1` [Compound A184, N-(4-benzylthiazol-2-yl)-1-(3-(pyridin-4-yl)propyl)-1H-pyrrole-2-carboxamide], the IC50 is 0.807 µM in test [1] (setting [7]), 1.08 µM in test [2] (setting [8]), 0.448 µM in test [3] (setting [9]) and 2.41 µM in test [6] (setting [10]). Further, the half-maximal effective concentration (EC50) amounted to 13.3 µM in test [4] and 11.8 µM in test [5].
For the compound `O=C(Nc1nc(Cc2ccccc2)cs1)c1cccn1CCCc1cccnc1` [Compound A187, N-(4-benzylthiazol-2-yl)-1-(3-(pyridin-3-yl)propyl)-1H-pyrrole-2-carboxamide], the IC50 in test [1] (setting [7]) is greater than 21.9 µM; in test [2] (setting [8]) it was 11.6 µM; in test [3] (setting [9]) it was 10.4 µM; in test [6] (setting [10]), greater than 25 µM. In addition, the EC50 is greater than 25 µM in test [4] and 18.3 µM in test [5].
With `CC(C)OC(C)(C)c1csc(NC(=O)c2cccn2CCCc2cccnc2)n1` [Compound A190, N-(4-(2-isopropoxypropan-2-yl)thiazol-2-yl)-1-(3-(pyridin-3-yl)propyl)-1H-pyrrole-2-carboxamide], the IC50 was greater than 18.1 µM in test [1] (setting [7]), 3.44 µM in test [2] (setting [8]), 5.23 µM in test [3] (setting [9]) and greater than 25 µM in test [6] (setting [10]). Moreover, the EC50 in test [4] and in test [5] was greater than 25 µM throughout.
On to `O=C(Nc1nc([C@H]2C[C@@H]2c2ccccc2)cs1)c1cccn1Cc1ccncc1` [Compound A194, N-(4-((1S,2S)-2-phenylcyclopropyl)thiazol-2-yl)-1-(pyridin-4-ylmethyl)-1H-pyrrole-2-carboxamide], for which the IC50 in test [1] (setting [7]) was 0.6 µM; in test [2] (setting [8]), 1.14 µM; in test [3] (setting [9]), 0.28 µM; in test [6] (setting [10]), 2.3 µM. The half-maximal effective concentration (EC50) in test [4] stood at 16 µM; in test [5], 6.67 µM.
In the case of `O=C(Nc1nc([C@H]2C[C@H]2c2ccccc2)cs1)c1cccn1Cc1ccncc1` [Compound A200], the IC50 is 0.332 µM in test [1] (setting [7]), 0.251 µM in test [2] (setting [8]), 0.14 µM in test [3] (setting [9]) and 1.61 µM in test [6] (setting [10]). For the same compound, the 50% effective concentration (EC50) in test [4] is greater than 25 µM; in test [5], 15.7 µM.
Take `O=C(Nc1nc(/C=C/c2cccc(Cl)c2)cs1)c1cccn1Cc1ccncc1` [Compound A209, N-(4-(3-chlorostyryl)thiazol-2-yl)-1-(pyridin-4-ylmethyl)-1H-pyrrole-2-carboxamide]: the IC50 in test [1] (setting [7]) was 0.578 µM; in test [2] (setting [8]), 1.24 µM; in test [3] (setting [9]) it was 0.232 µM; in test [6] (setting [10]) it was 4.74 µM. Moreover, the EC50 in test [4] and in test [5] was greater than 25 µM each time.
Consider `CC(C)OC(C)(C)c1csc(NC(=O)c2cccn2CC2CC(=O)N(C)C2)n1` (stereo not drawn) [Compound A210, N-(4-(2-isopropoxypropan-2-yl)thiazol-2-yl)-1-((1-methyl-5-oxopyrrolidin-3-yl)methyl)-1H-pyrrole-2-carboxamide], for which the IC50 in test [1] (read-out: 24 hr Dox Inducible Her3(ss + 4)Gluc 293FRT/TO: Mean IC50; 24 hr doxycycline induction, 293FRT/TO cells, Gaussia luciferase signal) was greater than 25 µM; in test [2] (read-out: 24 hr Dox Inducible IL2FLGIuc 293FRT/TO: Mean IC50; 24 hr doxycycline induction, 293FRT/TO cells, Gaussia luciferase signal), greater than 25 µM; in test [3] (read-out: 24 hr Dox Inducible PD1ssGluc 293FRT/TO: Mean IC50; 24 hr doxycycline induction, 293FRT/TO cells, Gaussia luciferase signal), greater than 25 µM; in test [6] (read-out: 24 hr Dox Inducible TNFaFLGluc 293FRT/TO: Mean IC50; 24 hr doxycycline induction, 293FRT/TO cells, Gaussia luciferase signal), greater than 25 µM. Moreover, the EC50 in test [4] and in test [5] was greater than 25 µM in each case.
With `COc1cnccc1Cn1cccc1C(=O)Nc1nc(C(C)(C)OC(C)C)cs1` [Compound A211, N-(4-(2-isopropoxypropan-2-yl)thiazol-2-yl)-1-((3-methoxypyridin-4-yl)methyl)-1H-pyrrole-2-carboxamide], the IC50 in test [1] (setting [7]) is greater than 25 µM; in test [2] (setting [8]) it was 8.31 µM; in test [3] (setting [9]), 10 µM; in test [6] (setting [10]), greater than 25 µM. In addition, the concentration for a half-maximal effect (EC50) in test [4] and in test [5] was greater than 25 µM in each case.
`CC(C)OC(C)(C)c1csc(NC(=O)c2cccn2Cc2ccncc2NCc2ccccc2)n1` [Compound A212, 1-((3-(benzylamino)pyridin-4-yl)methyl)-N-(4-(2-isopropoxypropan-2-yl)thiazol-2-yl)-1H-pyrrole-2-carboxamide]: the IC50 was 4.2 µM in test [1] (setting [7]), 4.57 µM in test [2] (setting [8]), 4.74 µM in test [3] (setting [9]) and greater than 25 µM in test [6] (setting [10]). For the same compound, the 50% effective concentration (EC50) in test [4] was found to be 3.76 µM; in test [5], 2.99 µM.
Turning to `O=C(Nc1nc(Cc2ccccc2)cs1)c1cccn1Cc1ccncc1NCc1ccccc1` [Compound A213, 1-((3-(benzylamino)pyridin-4-yl)methyl)-N-(4-benzylthiazol-2-yl)-1H-pyrrole-2-carboxamide], the IC50 in test [1] (setting [7]) is 4.94 µM; in test [2] (setting [8]), 6.05 µM; in test [3] (setting [9]), 12.1 µM; in test [6] (setting [10]), greater than 25 µM. The 50% effective concentration (EC50) in test [4] turned out to be 17.7 µM; in test [5], 13.8 µM.
With `CC(C)OC(C)(C)c1csc(NC(=O)c2cccn2Cc2ccncc2C(F)(F)F)n1` [Compound A214, N-(4-(2-isopropoxypropan-2-yl)thiazol-2-yl)-1-((3-(trifluoromethyl)pyridin-4-yl)methyl)-1H-pyrrole-2-carboxamide], the IC50 is 6.7 µM in test [1] (setting [7]), 6.45 µM in test [2] (setting [8]), 4.55 µM in test [3] (setting [9]) and greater than 25 µM in test [6] (setting [10]). The 50% effective concentration (EC50) in test [4] and in test [5] was greater than 25 µM throughout.
Take `O=C(Nc1nc(C2CC2c2ccccc2)cs1)c1cccn1CCCc1ccncc1` [Compound A215, N-(4-((1R,2R)-2-phenylcyclopropypthiazol-2-yl)-1-(3-(pyridin-4-yl)propyl)-1H-pyrrole-2-carboxamide]: the IC50 in test [1] (setting [7]) is 0.72 µM; in test [2] (setting [8]), 1.25 µM; in test [3] (setting [9]) it was 0.443 µM; in test [6] (setting [10]), 2.49 µM. The concentration for a half-maximal effect (EC50) in test [4] is greater than 25 µM; in test [5], 13.1 µM.
Regarding `O=C(Nc1nc(-c2ccccc2)cs1)c1cccn1Cc1ccncc1` [Compound A216, N-(4-phenylthiazol-2-yl)-1-(pyridin-4-ylmethyl)-1H-pyrrole-2-carboxamide], the IC50 was found to be 1.91 µM in test [1] (setting [7]), 1.56 µM in test [2] (setting [8]), 0.318 µM in test [3] (setting [9]) and 18.8 µM in test [6] (setting [10]). Besides, the half-maximal effective concentration (EC50) in test [4] and in test [5] was greater than 25 µM each time.
Consider `O=C(Nc1nc(/C=C/Cc2ccccc2)cs1)c1cccn1CCCc1ccncc1` [Compound A217, N-(4-(3-phenylprop-1-en-1-yl)thiazol-2-yl)-1-(3-(pyridin-4-yl)propyl)-1H-pyrrole-2-carboxamide], for which the IC50 in test [1] (setting [7]) is 0.425 µM; in test [2] (setting [8]), 0.943 µM; in test [3] (setting [9]) it was 0.245 µM; in test [6] (setting [10]), 3.53 µM. Besides, the 50% effective concentration (EC50) in test [4] was greater than 25 µM; in test [5] it was greater than 21.5 µM.
For `O=C(Nc1nc(/C=C/Cc2ccccc2)cs1)c1cccn1Cc1ccncc1` [Compound A218, N-(4-(3-phenylprop-1-en-1-yl)thiazol-2-yl)-1-(pyridin-4-ylmethyl)-1H-pyrrole-2-carboxamide], the IC50 in test [1] (setting [7]) stood at 0.315 µM; in test [2] (setting [8]), 0.779 µM; in test [3] (setting [9]), 0.131 µM; in test [6] (setting [10]), 3.03 µM. Further, the EC50 in test [4] is greater than 25 µM; in test [5] it was 17.1 µM.
For the compound `O=C(Nc1nc(/C=C/c2ccc(C(F)(F)F)cc2)cs1)c1cccn1Cc1ccncc1` [Compound A219, 1-(pyridin-4-ylmethyl)-N-(4-(4-(trifluoromethyl)styryl)thiazol-2-yl)-1H-pyrrole-2-carboxamide], the IC50 is 0.234 µM in test [1] (setting [7]), 0.443 µM in test [2] (setting [8]), 0.048 µM in test [3] (setting [9]) and 0.946 µM in test [6] (setting [10]). The 50% effective concentration (EC50) in test [4] was determined as 13.7 µM; in test [5] it was 8.6 µM.
